Source: publication PMC7179259, “Safety, Tolerability, Pharmacokinetics, and Antimalarial Activity of the Novel Plasmodium Phosphatidylinositol 4-Kinase Inhibitor MMV390048 in Healthy Volunteers” (Antimicrobial Agents and Chemotherapy, 2020)

Key:
P. falciparum = test system: P. falciparum; design: method as in PMID 28446690; details: humanized SCID mice infected with P. falciparum; cited from earlier work
[1] = Induced blood-stage malaria (IBSM) study: plasma pharmacokinetics; format: in vivo; details: human; for AUC(0-t): oral, 20 mg
Procedure: (§1) (ii) IBSM study. The dose of MMV390048 chosen (20 mg) was based on the pharmacokinetic, safety, and tolerability data available from the first-in-human study at the time the IBSM study commenced (when 5- and 20-mg-dose cohorts of the first-in-human study had been completed). This dose was below the estimated single dose required to achieve complete cure calculated from preclinical studies (80 to 100 mg) since recrudescence allows for characterization of the pharmacokinetic/pharmacodynamic relationship between MMV390048 and P. falciparum parasitemia. Subjects were inoculated intravenously on day 0 with erythrocytes infected with ∼1,800 viable chloroquine-sensitive P. falciparum 3D7 parasites ([17]). Fasted (≥8 h) subjects were dosed with MMV390048 when they reached the parasitemia threshold for treatment (∼1,000 parasites ml^−1) and were followed up until the end-of-study visit on day 28.
Blood samples from the three studies were analyzed at the University of Cape Town Division of Clinical Pharmacology Laboratory. MMV390048 was extracted from plasma using a protein precipitation procedure and analyzed using a liquid chromatography-tandem mass spectrometry assay. The precision (total assay coefficients of variation) for MMV390048 during sample analysis was less than 8% at all quality control levels, including the limit of quantification, which was 0.5 ng ml^−1. The full details of the assay are included in the supplemental material.
Noncompartmental pharmacokinetic analysis was performed using Phoenix WinNonlin Pro version 6.3 (Certara L.P., St. Louis, MO, USA) for the first-in-human and the formulation optimization studies, and using R version 3.2.0 for the IBSM study. Pharmacokinetic endpoints were the peak plasma concentration (Cmax), time at which Cmax is reached (Tmax), area under the concentration-time curve from 0 h to infinity (AUC0–inf), elimination half-life (t½), apparent clearance (CL/F), and apparent volume of distribution (Vz/F).

healthy subjects = experiment: Formulation optimization study: safety; format: in vivo, human; details: both tablet formulations
Procedure: The third study was a formulation optimization study to test two MMV390048 tablet formulations (tartaric acid and Syloid). The formulation optimization study was conducted at Richmond Pharmacology Ltd. (London, United Kingdom) from 17 September to 28 October 2015. This was a phase 1, open-label, single-dose, parallel-group, two-cohort design study.
(iii) Formulation optimization study. Subjects received one of two tablet formulations (formulation A, tartaric acid tablets; formulation B, Syloid tablets; manufactured by Quotient Clinical, United Kingdom) on day 1, after an ≥8-h fasting period, at a dose of 40 mg with 240 ml of water. Subjects were followed up until day 29.
(§2) Safety endpoints were the incidence, severity, and relationship to the investigational product (and inoculum for the IBSM study) of observed and self-reported adverse events (AEs), and changes from baseline in physical examination, vital signs, standard electrocardiograms (ECGs), continuous ECGs (first-in-human study only), and laboratory evaluation (hematology, coagulation parameters, hemolysis panel, clinical chemistry, and urinalysis) findings. […] AE severity was evaluated according to the Common Terminology Criteria for Adverse Events version 4.03 ([18]) and the World Health Organization recommendations for grading acute and subacute toxic effects ([19]).

[2] = design: method as in PMID 28446690; details: predicted for humans; cited from earlier work
[3] = test system: healthy subjects inoculated with blood-stage P. falciparum; experiment: Induced blood-stage malaria (IBSM) study: safety; format: in vivo, human
Procedure: The second study was conducted at Q-Pharm (Brisbane, Australia) from 27 October 2014 to 19 December 2014. This was an IBSM, phase 1b, single-center, open-label study, in which a single dose of MMV390048 was administered to subjects previously inoculated with blood-stage P. falciparum. This study was planned to consist of two dose cohorts; however, a second cohort was not enrolled due to the high variability in pharmacokinetic profiles observed in the first cohort and in the first-in-human study (see Results). The IBSM study commenced when the first two dose cohorts of the first-in-human study had been completed. MMV390048 was administered in the first-in-human and IBSM studies in a powder-in-bottle formulation.
as §1, §2

[4] = Stability in human plasma and whole blood (bioanalytical validation); format: in vitro ADME
Source text: page 28: Determination of MMV390048 from 50 µ L human plasma by LC -MS/MS A method was validated for the quantification of MMV390048 in human plasma, and consisted of a protein precipitation extraction, followed by high performance liquid chromatography with MS/MS detection. MMV390048- d3 was used as the internal standard. Analyte mean extraction yield was approximately 106.5 % (CV% = 6.2). The extraction procedure was followed by liquid chromatographic separation using a Waters Atlantis T3 3 μm, 100 x 2.1 mm analytical column. An isocratic mobile phase containing water:acetonitrile (25:75 [v/v]) was used at a flow-rate of 300 μL/min. The retention times for MMV390048 and MMV390048- d3 were 1.16 min and 1.16 min, respectively. An AB Sciex API 4000 mass spectrometer at unit resolution in the multiple reaction monitoring mode was used to monitor the transition of the protonated precursor ions, 394.145 m/z and 397.148 m/z, to the product ions, 297.0 m/z and 297.0 m/z, for MMV390048 and the internal standard, respectively. Electro -spray ionisation was used for ion production. Accuracy and precision were assessed over three consecutive, independent runs. The calibration curve fits a quadratic (weighted by 1/x) regressions for MMV390048 over the ranges 0.500 –2000 ng/mL, based on peak area ratios. The assay was successfully cross- validated on a second/back- up API 4000 instrument. […] Stock solutions of MMV390048 in dimethylsulfoxide was stable for 67 days when stored at -80°C and for 24 hours when stored at room temperature, 4°C and - 20°C. […] Samples with haemolysis greater than 1% were assayed in duplicate to confirm results.

[5] = Stability of stock solutions in dimethylsulfoxide; format: physicochemical
Source text: page 28: Determination of MMV390048 from 50 µ L human plasma by LC -MS/MS A method was validated for the quantification of MMV390048 in human plasma, and consisted of a protein precipitation extraction, followed by high performance liquid chromatography with MS/MS detection. MMV390048- d3 was used as the internal standard. Analyte mean extraction yield was approximately 106.5 % (CV% = 6.2). The extraction procedure was followed by liquid chromatographic separation using a Waters Atlantis T3 3 μm, 100 x 2.1 mm analytical column. An isocratic mobile phase containing water:acetonitrile (25:75 [v/v]) was used at a flow-rate of 300 μL/min. The retention times for MMV390048 and MMV390048- d3 were 1.16 min and 1.16 min, respectively. An AB Sciex API 4000 mass spectrometer at unit resolution in the multiple reaction monitoring mode was used to monitor the transition of the protonated precursor ions, 394.145 m/z and 397.148 m/z, to the product ions, 297.0 m/z and 297.0 m/z, for MMV390048 and the internal standard, respectively. Electro -spray ionisation was used for ion production. Accuracy and precision were assessed over three consecutive, independent runs. The calibration curve fits a quadratic (weighted by 1/x) regressions for MMV390048 over the ranges 0.500 –2000 ng/mL, based on peak area ratios. The assay was successfully cross- validated on a second/back- up API 4000 instrument. […]

[6] = single oral 20 mg fasted, powder-in-bottle, n = 6, geometric mean (CV %)

CS(=O)(=O)c1ccc(-c2cnc(N)c(-c3ccc(C(F)(F)F)nc3)c2)cc1 [MMV390048]
effective concentration to achieve 90% of the maximal kill rate (EC90) (P. falciparum): 0.16 µg/mL | AUC(0-t) ([1]; the 4 subjects who recrudesced 2 days after treatment): 6000 to 9000 ng·h/mL | AUC(0-t) ([1]; the two subjects who recrudesced 7 days after treatment): ~12000 ng·h/mL | AUC(0-inf) [1, 6]: 15900 ng·h/mL | Cmax [1, 6]: 106 ng/mL | Tmax ([1]; single oral 20 mg fasted, powder-in-bottle, n = 6, median (range)): 2 h | total AEs reported (healthy subjects; 18 subjects): 11 | subjects with AEs (healthy subjects; of 18 subjects): 7 | elimination half-life in humans predicted from preclinical studies [2]: 90 h | AEs deemed related to malaria ([3]; 20 mg): 81.3% | No. (%) of subjects with adverse events: All AEs, Treatment related ([3]; 20 mg (n = 6)): 0 | No. (%) of subjects with adverse events: Grade 2 AEs ([3]; 20 mg (n = 6)): 3 (50) | No. (%) of subjects with adverse events: Grade 2 AEs, Treatment related ([3]; 20 mg (n = 6)): 0 | No. (%) of subjects with adverse events: Grade 3 AEs ([3]; 20 mg (n = 6)): 0 | No. (%) of subjects with adverse events: SAEs ([3]; 20 mg (n = 6)): 0 | No. of adverse events: All AEs ([3]; 20 mg (n = 6)): 32 | No. of adverse events: Grade 2 AEs ([3]; 20 mg (n = 6)): 9 | No. of adverse events: Grade 2 AEs, Treatment related ([3]; 20 mg (n = 6)): 0 | No. of adverse events: Grade 3 AEs ([3]; 20 mg (n = 6)): 0 | No. of adverse events: SAEs ([3]; 20 mg (n = 6)): 0 | AEs mild in severity ([3]; 20 mg, 23/32 AEs): 71.9% | headache (most common AE), cases ([3]; 20 mg, in 4 subjects): 7 | stable in human plasma when subjected to freeze-thaw cycles ([4]; freeze-thaw cycles): 3 | stable in whole blood for up to ([4]; on ice): 1 h | stable in human plasma for ([4]; room temperature): 6 h | stable in human plasma for up to ([4]; stored at approximately -80°C): 79 days | stock solution in dimethylsulfoxide stable for ([5]; room temperature, 4°C and -20°C): 24 h | stock solution in dimethylsulfoxide stable for ([5]; stored at -80°C): 1610 h
